These results are taken from PubChem BioAssay AID328 (DTP/NCI, 2004).

The assay relates to BDF1 mice, P388 leukemia ip, median survival T/C. As to the kind of experiment: NCI In Vivo Anticancer Drug Screen. Data for tumor model P388 Leukemia (intraperitoneal) in B6D2F1 (BDF1) mice. The following applies: endpoint: median survival time, higher = longer survival. As for the experimental part:
The antitumor activity of compounds was measured in mice bearing transplantable tumors. Survival or tumor size were measured and the results are expressed as the measurement made in the treated group (T) divided by the measurement made in the vehicle treated control group (C). The tumor model used in this assay is P388 Leukemia (intraperitoneal) in B6D2F1 (BDF1) mice

[1] abbreviates: dose: 12.5 mg/kg/injection, schedule: Q01DX009 (ip), vehicle: water.
Setting [2] is: dose: 25.0 mg/kg/injection, schedule: Q01DX009 (ip), vehicle: water.
Where [3] appears, read: dose: 25.0 mg/kg/injection, schedule: Q04DX003 (ip), vehicle: water.
Setting [4] is: dose: 50.0 mg/kg/injection, schedule: Q01DX009 (ip), vehicle: water.
[5] abbreviates: dose: 100.0 mg/kg/injection, schedule: Q01DX009 (ip), vehicle: water.
Where [6] appears, read: dose: 200.0 mg/kg/injection, schedule: Q01DX009 (ip), vehicle: water.
Where [7] appears, read: dose: 50.0 mg/kg/injection, schedule: Q01DX009 (ip), vehicle: saline with Tween-80.
Where [8] appears, read: dose: 100.0 mg/kg/injection, schedule: Q01DX009 (ip), vehicle: saline with Tween-80.
The mark [9] stands for this setting: dose: 200.0 mg/kg/injection, schedule: Q01DX009 (ip), vehicle: saline with Tween-80.
Setting [10] is: dose: 50.0 mg/kg/injection, schedule: Q01DX005 (ip), vehicle: saline with Tween-80.
Where [11] appears, read: dose: 100.0 mg/kg/injection, schedule: Q01DX005 (ip), vehicle: saline with Tween-80.
Setting [12] is: dose: 200.0 mg/kg/injection, schedule: Q01DX005 (ip), vehicle: saline with Tween-80.
Setting [13] is: dose: 100.0 mg/kg/injection, schedule: Q04DX003 (ip), vehicle: saline.
Setting [14] is: dose: 200.0 mg/kg/injection, schedule: Q04DX003 (ip), vehicle: saline.

Each structure is given as a SMILES string. Values joined by “and” are separate entries in the source; they are usually repeats but may differ in a detail not shown here. Identical values can stand only once. Inconclusive results and toxic doses are left out.

As for `COc1cc(OC)c(OC)cc1/C=C\c1ccnc2ccccc12`, the T/C (dose: 133.0 mg/kg/injection, schedule: Q01DX010 (ip), vehicle: saline) was 120 % of control; the T/C (dose: 200.0 mg/kg/injection, schedule: Q01DX009 (ip), vehicle: carboxymethylcellulose (CMC)) was 116 % of control; the T/C (dose: 200.0 mg/kg/injection, schedule: Q01DX010 (ip), vehicle: saline) was 120 % of control; the T/C (dose: 400.0 mg/kg/injection, schedule: Q01DX009 (ip), vehicle: carboxymethylcellulose (CMC)) is 166 % of control; the T/C (dose: 450.0 mg/kg/injection, schedule: Q01DX010 (ip), vehicle: saline) was 120 % of control.
`Nc1ccc(NS(=O)(=O)Cc2ccccc2)cc1`: the T/C runs as follows: (dose: 25.0 mg/kg/injection, schedule: Q01DX001 (ip), vehicle: saline with Tween-80) 100 % of control; (dose: 50.0 mg/kg/injection, schedule: Q01DX001 (ip), vehicle: saline with Tween-80) 100 % of control; (dose: 100.0 mg/kg/injection, schedule: Q01DX001 (ip), vehicle: saline with Tween-80) 100 % of control.
Turning to `O=C(O)C1CCC2(CCCCC2)CC1`, the T/C by setting is: (dose: 6.25 mg/kg/injection, schedule: Q01DX009 (ip), vehicle: water) 106 % of control; under setting [1], 100 % of control; (dose: 12.5 mg/kg/injection, schedule: Q04DX003 (ip), vehicle: water) 104 % of control; under setting [2], 113 % of control and 117 % of control; under setting [3], 94 % of control and 106 % of control and 116 % of control; under setting [4], 99 % of control and 106 % of control. Moreover, the T/C was 94 % of control and 100 % of control under setting [5]; 88 % of control under setting [6].
For `CC1=CC=CC2=NC(=O)CCN12`, the T/C was 94 % of control under setting [7], 94 % of control under setting [8] and 100 % of control under setting [9].
As to `Cc1cc(=O)c(O)c(N(C)C)o1`, the T/C was 95 % of control under setting [7], 106 % of control under setting [8] and 102 % of control under setting [9].
As to `COc1c2occc2c(CC(O)C(C)(C)O)c2ccc(=O)oc12` (centres undefined), the T/C runs as follows: (dose: 43.8 mg/kg/injection, schedule: Q01DX009 (ip), vehicle: Klucel (hydroxypropylcellulose) (HPC)) 103 % of control; (dose: 87.5 mg/kg/injection, schedule: Q01DX009 (ip), vehicle: Klucel (hydroxypropylcellulose) (HPC)) 92 % of control; (dose: 175.0 mg/kg/injection, schedule: Q01DX009 (ip), vehicle: Klucel (hydroxypropylcellulose) (HPC)) 90 % of control.
As to `CCc1cc(O)c(Cl)c(C)c1Cl`, the T/C by setting is: (dose: 50.0 mg/kg/injection, schedule: Q01DX009 (ip), vehicle: gum acacia) 119 % of control; (dose: 50.0 mg/kg/injection, schedule: Q04DX003 (ip), vehicle: gum acacia) 111 % of control; (dose: 100.0 mg/kg/injection, schedule: Q01DX009 (ip), vehicle: gum acacia) 111 % of control; (dose: 100.0 mg/kg/injection, schedule: Q04DX003 (ip), vehicle: gum acacia) 100 % of control; (dose: 200.0 mg/kg/injection, schedule: Q04DX003 (ip), vehicle: gum acacia) 100 % of control.
As for `CC(=O)Oc1c(Br)cc(Br)cc1-c1ccccc1`, the T/C was 92 % of control under setting [7]; 92 % of control under setting [8]; 92 % of control under setting [9]; 90 % of control (dose: 400.0 mg/kg/injection, schedule: Q01DX009 (ip), vehicle: saline with Tween-80).
Regarding `OCCc1ccccc1`, the T/C is, setting by setting: (dose: 100.0 mg/kg/injection, schedule: Q01DX009 (ip), vehicle: saline sonified) 100 % of control; (dose: 200.0 mg/kg/injection, schedule: Q01DX009 (ip), vehicle: saline sonified) 100 % of control.
`Nc1ccccc1SC1CC(=O)N(c2ccc(Br)c(Cl)c2)C1=O` (centres undefined): the T/C reads like this: (dose: 0.1 mg/kg/injection, schedule: Q01DX005 (ip), vehicle: saline with Tween-80) 98 % of control; (dose: 0.2 mg/kg/injection, schedule: Q01DX005 (ip), vehicle: saline with Tween-80) 93 % of control; (dose: 0.4 mg/kg/injection, schedule: Q01DX005 (ip), vehicle: saline with Tween-80) 100 % of control; (dose: 1.5 mg/kg/injection, schedule: Q01DX005 (ip), vehicle: saline with Tween-80) 95 % of control; (dose: 3.0 mg/kg/injection, schedule: Q01DX005 (ip), vehicle: saline with Tween-80) 90 % of control.
On to `CCCCCCCCCCCC(=O)Oc1c(Cl)c(Cl)c(C#N)c(Cl)c1Cl`, for which the T/C runs as follows: under setting [7], 94 % of control; under setting [9], 86 % of control.
As for `CC1(C)OC(C)(C)c2c1nnc(-c1ccccc1[N+](=O)[O-])[n+]2[O-]`, the T/C is 93 % of control under setting [10], 88 % of control under setting [11] and 86 % of control under setting [12].
With `CC1=NN(c2ccccc2)C(=O)C1C(=S)SC1CC(=O)OC1=O` (centres undefined), the T/C reads like this: under setting [7], 100 % of control; under setting [8], 112 % of control.
As for `CC1CN1P1(N2CC2C)=NP(N2CC2C)(N2CC2C)=NP(N2CC2C)(N2CC2C)=N1` (centres undefined), the T/C by setting is: (dose: 4.4 mg/kg/injection, schedule: Q01DX009 (ip), vehicle: saline) 122 % of control; (dose: 6.6 mg/kg/injection, schedule: Q01DX009 (ip), vehicle: saline) 124 % of control; (dose: 15.0 mg/kg/injection, schedule: Q01DX009 (ip), vehicle: saline) 161 % of control; (dose: 16.5 mg/kg/injection, schedule: Q01DX009 (ip), vehicle: saline) 155 % of control; (dose: 25.0 mg/kg/injection, schedule: Q01DX009 (ip), vehicle: saline) 160 % of control and 164 % of control; (dose: 25.0 mg/kg/injection, schedule: Q04DX003 (ip), vehicle: saline) 114 % of control. Moreover, the T/C (dose: 37.5 mg/kg/injection, schedule: Q01DX009 (ip), vehicle: saline) is 169 % of control; the T/C (dose: 50.0 mg/kg/injection, schedule: Q01DX009 (ip), vehicle: saline) was 203 % of control; the T/C under setting [13] is 166 % of control and 214 % of control; the T/C under setting [14] is 102 % of control.
`COc1ccc(C2C=C(c3ccc4c(c3)OCO4)Oc3c2c(=O)oc2ccccc32)cc1OC` (centres undefined): the T/C under setting [1] is 99 % of control; the T/C under setting [2] was 94 % of control; the T/C under setting [3] was 94 % of control; the T/C under setting [4] was 94 % of control; the T/C (dose: 50.0 mg/kg/injection, schedule: Q04DX003 (ip), vehicle: water) was 101 % of control; the T/C under setting [5] is 99 % of control. Besides, the T/C is, setting by setting: (dose: 100.0 mg/kg/injection, schedule: Q04DX003 (ip), vehicle: water) 97 % of control; under setting [6], 94 % of control; (dose: 200.0 mg/kg/injection, schedule: Q04DX003 (ip), vehicle: water) 110 % of control; (dose: 400.0 mg/kg/injection, schedule: Q04DX003 (ip), vehicle: water) 106 % of control.
For `COC(C)C(Br)C(=O)O` (centres undefined), the T/C is 88 % of control (dose: 100.0 mg/kg/injection, schedule: Q01DX009 (ip), vehicle: saline); 100 % of control under setting [13]; 92 % of control (dose: 200.0 mg/kg/injection, schedule: Q01DX009 (ip), vehicle: saline); 91 % of control under setting [14]; 91 % of control (dose: 400.0 mg/kg/injection, schedule: Q04DX003 (ip), vehicle: saline).
`CN(C)CC(=O)Nc1nc(-c2ccc(Cl)cc2)cs1`: the T/C is 101 % of control under setting [10], 92 % of control under setting [11] and 99 % of control under setting [12].
Turning to `N=C(N)c1ccc(C(=O)Oc2ccc([N+](=O)[O-])cc2)cc1`, the T/C is, setting by setting: (dose: 50.0 mg/kg/injection, schedule: Q04DX003 (ip), vehicle: saline with Tween-80) 109 % of control; (dose: 100.0 mg/kg/injection, schedule: Q04DX003 (ip), vehicle: saline with Tween-80) 109 % of control; (dose: 200.0 mg/kg/injection, schedule: Q04DX003 (ip), vehicle: saline with Tween-80) 109 % of control.
